≈ marks a conversion by molar mass, not a printed value. Entries after “also recorded” stand apart in the source; their conditions may differ.
Assays:
E. coli = conditions: cited from earlier work
P. aeruginosa [1] = assay: Viable cell counts from the biofilms in silicone tubing; conditions: 100 mg/ml of EAA, end of two week incubation
Y. enterocolitica [2] = assay: Biofilm amounts, ATP assay, 24-well polystyrene plate; assay type: cell-based, Yersinia enterocolitica; conditions: for IC50: Yersinia enterocolitica, Y. enterocolitica
Y. enterocolitica [3] = assay: Viable bacteria (cell counts) within the biofilm; assay type: cell-based, Yersinia enterocolitica
Enterobacteriaceae = assay: Ground beef at 10° C., counts on VRBG plates; assay type: cell-based; conditions: for Different from 0% (concentrations grouping differently from untreated control, Fisher's LSD and t-test): VRGB, Enterobacteriaceae
Protocol: (§1) Ground beef was obtained from the NDSU Meat Lab (ag.ndsu.edu/ansc/facilities/shepperd-arena). Precautionary steps that the slaughter facility undertakes to prevent microbial contamination of muscle meat include rinses of the hot carcass with hot water and 2.5% lactic acid (Birko Corp., Henderson, Colo.). Prior to cutting the meat, cattle halves are incubated for two weeks at a temperature between 0 and 2.2° C. For this Example, meat from two animals was ground within the NDSU Meat Lab and consecutively transferred on ice to the research lab where this Experiment was conducted. Approximately 4 pound of ground meat was obtained from two independent slaughter events (FIG. 6). These two original meat samples are referred to as biological replicates throughout this study. Each biological replicate was weighed into five aliquots of 200 g that were supplemented with 0 g, 0.1 g, 0.5 g, 1 g, or 5 g of liquid EAA (Alfa Aesar, Ward Hill Mass.). A total of six aliquots of 10 g were produced from each 200 g aliquot to allow for two technical replicates and determination of bacterial counts at three different time points during the incubation period. Aliquots were stored in Ziploc bags at −20° C.
Meat samples were removed from the freezer and incubated at 10° C. for five days; bacterial counts were determined on days 1, 3, and 5. For one initial experiment, samples were removed after 1 h of incubation at 10° C. This aliquot is not included in FIG. 6.
The content of each bag was transferred into a stomacher bag and Maximum Recovery Diluent (MRD) was added to a total of 50 ml. Meat was homogenized in a Seward Stomacher 400 Circulator (Cole Parmer, Vernon Hills, Ill.). The total bacterial count of each homogenate was determined by plating serial dilutions on Plate Count Agar (PCA). Pseudomonads were determined with Pseudomonas Selective Agar (PSA), lactobacilli with All Purpose Tween agar (APT), B. thermospacta with Streptomycin sulphate, Thallous Acetate and Actidione agar (STAA), and Enterobacteriaceae with Violet Red Bile Glucose agar (VRBG). For the composition of these media, see TABLE 7 (BD: Becton Dickinson). […]
Each experiment was performed in a total of 8 replicates (2 biological replicates×2 technical replicates×2 plate replicates). […] Data were analyzed for each EAA concentration and selective media and expressed as CFU/g of meat or log10 CFU/g of meat. […] Average and standard errors were calculated across the two biological and two technical replicates. […] For comparisons that determined statistically significant differences between the means (p-value below 0.05), Fisher's Least Significant Difference (LSD) test and a pairwise Student's t-test were performed as post hoc test to determine which of the groups were different from the others.

S. aureus = assay: Viable cell counts in the liquid collected from the tubing before each treatment; assay type: cell-based, Staphylococcus aureus; conditions: before the 2nd treatment, 100 mg/ml EAA as first treatment
C. sakazakii = assay: Biofilm amounts, CV assay, 24-well polystyrene plate; assay type: cell-based; conditions: Cronobacter sakazakii, 37° C.
Excerpt: (§2) Data were expressed as OD600.

S. marcescens = assay: as above; assay type: cell-based; conditions: Serratia marcescens, 30° C.
Excerpt: as §2

Y. enterocolitica [4] = assay: as above; assay type: cell-based, Yersinia enterocolitica
Excerpt: as §2

S. enterica = conditions: cited from earlier work
P. aeruginosa [5] = assay: Biofilm in silicone tubing, EAA flush, CV assay; conditions: 100 mg/ml EAA
Y. enterocolitica [6] = assay: Planktonic growth (maximal velocity of OD600) in TSB; assay type: cell-based, Yersinia enterocolitica; conditions: for IC50: Yersinia enterocolitica, Y. enterocolitica
Protocol: The IC50 values were calculated using […] software (Hitachi Solutions, San Bruno, Calif.).

B. thermospacta = assay: Ground beef at 10° C., counts on STAA plates; assay type: cell-based, Brocothrix thermospacta; conditions: for Different from 0% (concentrations grouping differently from untreated control, Fisher's LSD and t-test): STAA, B. thermospacta
Protocol: as §1, with “A total of six aliquots of 10 g were produced from each 200 g aliquot to allow for two technical replicates and determination of bacterial counts at three different time points during the incubation period. Aliquots were stored in Ziploc bags at −20° C.” left out
(§3) Meat samples were removed from the freezer and incubated at 10° C. for five days; bacterial counts were determined on days 1, 3, and 5. […]
(§4) The content of each bag was transferred into a stomacher bag and Maximum Recovery Diluent (MRD) was added to a total of 50 ml. […] The total bacterial count of each homogenate was determined by plating serial dilutions on Plate Count Agar (PCA). Pseudomonads were determined with Pseudomonas Selective Agar (PSA), lactobacilli with All Purpose Tween agar (APT), B. thermospacta with Streptomycin sulphate, Thallous Acetate and Actidione agar (STAA), and Enterobacteriaceae with Violet Red Bile Glucose agar (VRBG). […]
(§5) Each experiment was performed in a total of 8 replicates (2 biological replicates×2 technical replicates×2 plate replicates). […] Data were analyzed for each EAA concentration and selective media and expressed as CFU/g of meat or log10 CFU/g of meat. […] Average and standard errors were calculated across the two biological and two technical replicates. […]

isolated bovine corneas = conditions: cited from earlier work
P. aeruginosa [7] = assay: Biofilm in silicone tubing, EAA flush, ATP assay
lactobacilli = assay: Ground beef at 10° C., counts on APT plates; assay type: cell-based; conditions: for Different from 0% (concentrations grouping differently from untreated control, Fisher's LSD and t-test): LPT, Lactobacilli
Protocol: as §1, with “A total of six aliquots of 10 g were produced from each 200 g aliquot to allow for two technical replicates and determination of bacterial counts at three different time points during the incubation period. Aliquots were stored in Ziploc bags at −20° C.” left out
as §3, §4, §5

pseudomonads = assay: Ground beef at 10° C., counts on PSA plates; assay type: cell-based; conditions: for Different from 0% (concentrations grouping differently from untreated control, Fisher's LSD and t-test): PSA, Pseudomonas
Protocol: as §1, with “A total of six aliquots of 10 g were produced from each 200 g aliquot to allow for two technical replicates and determination of bacterial counts at three different time points during the incubation period. Aliquots were stored in Ziploc bags at −20° C.” left out
as §3, §4, §5

In the case of `CCOC(=O)CC(C)=O` [EAA, ethyl acetoacetate], the mutagenicity (E. coli) is listed as “a mutagenic effect could be detected”, the “reduction of cell counts within the biofilm” value (P. aeruginosa [1]) is listed as “about 3 logs” and the “biofilm reduction by the ATP assay, fold equivalent” value (Y. enterocolitica [2]; 25° C., 15 mg/ml of EAA) is listed as 200 fold. The “log ratio of biofilm reduction by the ATP assay” value (Y. enterocolitica [2]; 25° C., 15 mg/ml of EAA) was 2.3 log, the “biofilm amounts quantified by the ATP assay” value (Y. enterocolitica [2]; 37° C., 10 mg/ml EAA) was “abolished” and the “log reduction in biofilm amount, ATP assay” value (Y. enterocolitica [2]; 37° C., 10 mg/ml of EAA) was 2.04. The “reduction in biofilm amount, ATP assay, fold equivalent” value (Y. enterocolitica [2]; 37° C., 10 mg/ml of EAA) was 110 fold, the IC50 (Y. enterocolitica [2]; 25° C.) was 2100 µg/mL (≈ 16.1 mM) and the IC50 (Y. enterocolitica [2]; 37° C.) was 4290 µg/mL (≈ 33 mM). The “reduction of bacterial cell counts in the biofilm” value (Y. enterocolitica [3]; 25° C., 7.5 mg/ml EAA) was 2.06 logs, the “reduction of bacterial cell counts in the biofilm” value (Y. enterocolitica [3]; 25° C., 10 mg/ml EAA) was 3.07 logs and the “bacterial cell counts in the biofilm” value (Y. enterocolitica [3]; 37° C., 2.5 mg/ml EAA) was “did not show a reduction”. The “log reduction of bacterial cell counts in the biofilm” value (Y. enterocolitica [3]; 37° C., 7.5 mg/ml EAA) was 2.06 logs, the “log reduction in live bacteria within the biofilm” value (Y. enterocolitica [3]; 37° C., 10 mg/ml of EAA) was 0.92 and the “reduction in live bacteria within the biofilm, fold equivalent” value (Y. enterocolitica [3]; 37° C., 10 mg/ml of EAA) was 8.3 fold. For the same compound, the IC50 (Y. enterocolitica [3]; Yersinia enterocolitica, Y. enterocolitica, 25° C., live bacteria in the biofilm, read-out: IC50, Live cells) was 3000 µg/mL (≈ 23.1 mM), the “log reduction, Enterobacteriaceae” value (Enterobacteriaceae; 0.5% w/w EAA, 3 days at 10° C.) was 2 and the “log reductions, Enterobacteriaceae” value (Enterobacteriaceae; 2.5% of EAA, 5 days at 10° C.) was “up to 3.8”. The “Different from 0% (concentrations grouping differently from untreated control, Fisher's LSD and t-test)” value (Enterobacteriaceae; 0.5% EAA) was 0.5%, the “Different from 0% (concentrations grouping differently from untreated control, Fisher's LSD and t-test)” value (Enterobacteriaceae; 2.5% EAA) was 2.5% and the “difference in viable cells in the liquid, EAA vs media flush” value (S. aureus) was 2 log. For the same compound, the IC50 (C. sakazakii) was 700 µg/mL (≈ 5.38 mM), the IC50 (S. marcescens) was 5600 µg/mL (≈ 43 mM) and the “biofilm amounts quantified by the CV assay” value (Y. enterocolitica [4]; 37° C., 10 mg/ml EAA) was “abolished”. The IC50 (Y. enterocolitica [4]; Yersinia enterocolitica, Y. enterocolitica, 25° C.) was 1000 µg/mL (≈ 7.68 mM), the mutagenicity (S. enterica) was “No mutagenicity was detected” and the “reduction in biofilm biomass (CV), words” value (P. aeruginosa [5]; first experiment) was “no reduction”. For the same compound, the “biofilm biomass from the CV assay after EAA” value (P. aeruginosa [5]; repeated experiment, untreated 0.78) was 0.24 OD600, the “log reduction of planktonic growth” value (Y. enterocolitica [6]; 25° C., 10 mg/ml EAA) was 1.7 log and the “reduction of planktonic growth, fold equivalent” value (Y. enterocolitica [6]; 25° C., 10 mg/ml EAA) was 50 fold. The “log reduction of planktonic growth” value (Y. enterocolitica [6]; 37° C., 5 mg/ml EAA) was 1.78, the “reduction of planktonic growth, fold equivalent” value (Y. enterocolitica [6]; 37° C., 5 mg/ml EAA) was 61 fold and the IC50 (Y. enterocolitica [6]; 25° C.) was 3200 µg/mL (≈ 24.6 mM). For the same compound, the IC50 (Y. enterocolitica [6]; 37° C.) was 2480 µg/mL (≈ 19.1 mM), the “log reduction, Brocothrix thermospecta” value (B. thermospacta; 0.5% w/w EAA, 3 days at 10° C.) was 2.1 and the “Different from 0% (concentrations grouping differently from untreated control, Fisher's LSD and t-test)” value (B. thermospacta; 0.5% EAA) was 0.5%. The “Different from 0% (concentrations grouping differently from untreated control, Fisher's LSD and t-test)” value (B. thermospacta; 2.5% EAA) was 2.5%, the eye irritation (isolated bovine corneas) was “moderate eye irritation that was fully reversible after seven days” and the “ATP content of P. aeruginosa biofilm” value (P. aeruginosa [7]; 100 mg/ml EAA, first experiment) was “not affected; also recorded: not reduced”. The “reduction of ATP” value (P. aeruginosa [7]; P. aeruginosa, 10 mg/ml of EAA) was 76%, the “ATP assay of the biofilm at the end of the two week incubation” value (P. aeruginosa [7]; P. aeruginosa, 100 mg/ml of EAA, repeated experiment) was “just about abolished the biofilm” and the “log reduction, lactobacilli” value (lactobacilli; 0.5% w/w EAA, 3 days at 10° C.) was 1.8. For the same compound, the “Different from 0% (concentrations grouping differently from untreated control, Fisher's LSD and t-test)” value (lactobacilli; 0.5% EAA) was 0.5%, the “Different from 0% (concentrations grouping differently from untreated control, Fisher's LSD and t-test)” value (lactobacilli; 2.5% EAA) was 2.5% and the “log reduction, pseudomonads” value (pseudomonads; 0.5% w/w EAA, 3 days at 10° C.) was 2.6. The “Different from 0% (concentrations grouping differently from untreated control, Fisher's LSD and t-test)” value (pseudomonads; 0.5% EAA) was 0.5% and the “Different from 0% (concentrations grouping differently from untreated control, Fisher's LSD and t-test)” value (pseudomonads; 2.5% EAA) was 2.5%.
